Paper PMC12186844 (ACS Chemical Neuroscience, 2025)
Substitutions are numbered along the chain they refer to.

How the values were obtained:
SNAP-D2SR D80^2.50A = SNAP-D2SR D80^2.50A (Homo sapiens, UniProt P14416, D80A); assay: functional cAMP assay, BRET biosensor; format: cell-based
Description: (§1) Flp-In-CHO cells stably coexpressing the CAMYEL biosensor and DRs were plated into white 96-well CulturPlates (Revvity) and grown overnight. The cells were equilibrated in Hank’s balanced salt solution (HBSS) at 37 °C (or 25 °C when indicated) before starting the experiment. The cells were costimulated with the agonists and 10 μM forskolin for the indicated time frames when the BRET readings were captured. Coelenterazine (Nanolight Technology, AZ) was added at a final concentration of 5 μM at least 3 min prior to measurement. […] Net BRET was determined by subtraction of the vehicle control coadded with 10 μM forskolin.
(§2) Dose–response curves were fitted using the following three-parameter equation: response=bottom+top−bottom/1+10^(logEC50−log[A]) 5 where top and bottom represent the maximal and minimal asymptote of the dose response curve, [A] is the molar concentration of the agonist, and EC50 is the molar concentration of the agonist required to give a response half-way between bottom and top.

D2LR = D2LR (Homo sapiens, UniProt P14416); assay: β-arrestin-2 recruitment BRET assay; format: cell-based
Description: Flp-In-CHO cells were seeded at a density of 2,000,000 cells per 10 cm dish and were transfected the following day using polyethylenimine as a transfection reagent. To assess β-arrestin-2 recruitment to the D2LR, the cells were transfected with 1 μg of Rluc8-tagged D2LR, 4 μg of YFP-β-arrestin-2, and 2 μg of GRK2. Twenty-four hours after transfection, the cells were plated into 96-well CulturPlates (PerkinElmer) and grown overnight. […] The cells were incubated with coelenterazine (Promega) at a final concentration of 5 μM for 5 min followed by stimulation with the agonists for an additional 5 min before the BRET readings were captured.

SNAP-D2SR I128^3.46A = molecular target: T1, SNAP-D2SR I128^3.46A (Homo sapiens, UniProt P14416, I128A); assay: cell membrane [3H]spiperone assay
T1 sequence (P14416 1-414 isoform P14416-2 I128A): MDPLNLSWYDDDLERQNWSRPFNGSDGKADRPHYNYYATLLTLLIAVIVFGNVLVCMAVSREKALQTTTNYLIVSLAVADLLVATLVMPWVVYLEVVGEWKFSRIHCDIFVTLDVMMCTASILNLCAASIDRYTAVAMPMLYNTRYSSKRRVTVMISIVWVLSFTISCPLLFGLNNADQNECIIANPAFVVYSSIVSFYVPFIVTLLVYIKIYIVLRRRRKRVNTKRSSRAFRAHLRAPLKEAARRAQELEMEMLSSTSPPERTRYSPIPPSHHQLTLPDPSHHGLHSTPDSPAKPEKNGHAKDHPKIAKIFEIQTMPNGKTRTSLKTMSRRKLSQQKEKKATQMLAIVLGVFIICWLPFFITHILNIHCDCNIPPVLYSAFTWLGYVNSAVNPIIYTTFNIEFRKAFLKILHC
Description: (§3) Flp-In-CHO cells stably expressing the wild-type or mutant DRs were grown to 90% confluence in 175 cm^2 cell culture flasks. The cells were harvested in PBS containing 2 mM EDTA and centrifuged at 300g for 3 min. The resulting pellet was resuspended in ice-cold assay buffer (20 mM HEPES, 100 mM NaCl, 6 mM MgCl2, 1 mM EGTA, and 1 mM EDTA, pH 7.4), and the centrifugation step was repeated. The intact cell pellet was then resuspended in assay buffer and homogenized using a Polytron homogenizer. After centrifugation (1000g, 10 min), the pellet was discarded, and the supernatant was recentrifuged at 30,000g for 1 h at 4 °C using a Sorvall Evolution RC ultracentrifuge (Thermo Scientific). The resulting pellet was resuspended in assay buffer and stored in 250 μL aliquots at −80 °C. Membrane protein concentration was determined using a Pierce’s BCA protein assay kit (Thermo Fisher, Melbourne).
(§4) [^3H]­Spiperone binding experiments using cell membranes were conducted in a 200 μL reaction volume in assay buffer (20 mM HEPES, 100 mM NaCl, 6 mM MgCl2, 1 mM EGTA, and 1 mM EDTA, pH 7.4) containing 100 μM GppNHp and 0.1% ascorbic acid in 96-well plates. […] In all cases, nonspecific binding was determined in the presence of 10 μM haloperidol. […] Filter bound radioactivity was detected as a chemiluminescence after the addition of MicroScint-20 (Revvity) in a MicroBeta plate counter (Revvity). […]

SNAP-D2SR C118^3.36A = molecular target: T2, SNAP-D2SR C118^3.36A (Homo sapiens, UniProt P14416, C118A); assay: functional cAMP assay, BRET biosensor; format: cell-based
T2 sequence (P14416 1-414 isoform P14416-2 C118A): T1 sequence (P14416 1-414 isoform P14416-2 I128A) with C118A, A128I
Description: as §1, §2

SNAP-D2SR L94^2.64A = SNAP-D2SR L94^2.64A (Homo sapiens, UniProt P14416, L94A); assay: functional cAMP assay, BRET biosensor; format: cell-based
Description: (§5) Flp-In-CHO cells stably coexpressing the CAMYEL biosensor and DRs were plated into white 96-well CulturPlates (Revvity) and grown overnight. The cells were equilibrated in Hank’s balanced salt solution (HBSS) at 37 °C (or 25 °C when indicated) before starting the experiment. The cells were costimulated with the agonists and 10 μM forskolin for the indicated time frames when the BRET readings were captured. Coelenterazine (Nanolight Technology, AZ) was added at a final concentration of 5 μM at least 3 min prior to measurement. […] Net BRET was determined by subtraction of the vehicle control coadded with 10 μM forskolin. For phenoxybenzamine alkylation experiments, the cells were treated with 0.1, 0.3, or 1 μM phenoxybenzamine (Sigma-Aldrich) diluted in HBSS and equilibrated at 37 °C for 30 min prior to the commencement of the assay.
as §2

SNAP-D2SR N52^1.50A = SNAP-D2SR N52^1.50A (Homo sapiens, UniProt P14416, N52A); assay: functional cAMP assay, BRET biosensor; format: cell-based
Description: as §1, §2

SNAP-D2SR I73^2.43A = SNAP-D2SR I73^2.43A (Homo sapiens, UniProt P14416, I73A); assay: cell membrane [3H]spiperone assay
Description: as §3, §4

SNAP-D2SR V91^2.61A = SNAP-D2SR V91^2.61A (Homo sapiens, UniProt P14416, V91A); assay: functional cAMP assay, BRET biosensor; format: cell-based
Description: as §5, §2

SNAP-D2SR S121^3.39A = molecular target: T3, SNAP-D2SR S121^3.39A (Homo sapiens, UniProt P14416, S121A); assay: functional cAMP assay, BRET biosensor; format: cell-based
T3 sequence (P14416 1-414 isoform P14416-2 S121A): T1 sequence (P14416 1-414 isoform P14416-2 I128A) with S121A, A128I
Description: as §1, §2

SNAP-D2SR L54^1.52A = SNAP-D2SR L54^1.52A (Homo sapiens, UniProt P14416, L54A); assay: cell membrane [3H]spiperone assay
Description: as §3, §4

SNAP-D2SR T398^7.54A = SNAP-D2SR T398^7.54A (Homo sapiens, UniProt P14416, T427A); assay: functional cAMP assay, BRET biosensor; format: cell-based; parameters: expressed in transfected cells
Description: as §1, §2

[1] = read-out: D2 PAM2 KB (converted)

Sequence of SNAP-D2SR V91^2.61A (P14416 1-414 isoform P14416-2 V91A): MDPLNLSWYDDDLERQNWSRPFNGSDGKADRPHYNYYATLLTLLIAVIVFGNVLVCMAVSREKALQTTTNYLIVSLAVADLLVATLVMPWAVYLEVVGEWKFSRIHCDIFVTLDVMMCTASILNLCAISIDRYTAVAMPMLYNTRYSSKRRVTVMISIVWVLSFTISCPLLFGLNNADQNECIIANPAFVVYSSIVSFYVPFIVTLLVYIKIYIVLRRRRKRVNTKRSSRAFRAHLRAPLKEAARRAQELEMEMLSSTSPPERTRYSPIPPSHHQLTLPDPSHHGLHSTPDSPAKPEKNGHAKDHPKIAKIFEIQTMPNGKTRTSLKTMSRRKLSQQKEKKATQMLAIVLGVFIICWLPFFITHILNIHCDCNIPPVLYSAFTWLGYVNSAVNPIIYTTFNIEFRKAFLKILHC
Sequence of SNAP-D2SR D80^2.50A (P14416 1-414 isoform P14416-2 D80A): as the sequence (P14416 1-414 isoform P14416-2 V91A) above, with D80A, A91V counted along it
Sequence of SNAP-D2SR T398^7.54A (P14416 1-414 isoform P14416-2 T398A): as the sequence (P14416 1-414 isoform P14416-2 V91A) above, with A91V, T398A counted along it
Sequence of D2LR (P14416 whole entry): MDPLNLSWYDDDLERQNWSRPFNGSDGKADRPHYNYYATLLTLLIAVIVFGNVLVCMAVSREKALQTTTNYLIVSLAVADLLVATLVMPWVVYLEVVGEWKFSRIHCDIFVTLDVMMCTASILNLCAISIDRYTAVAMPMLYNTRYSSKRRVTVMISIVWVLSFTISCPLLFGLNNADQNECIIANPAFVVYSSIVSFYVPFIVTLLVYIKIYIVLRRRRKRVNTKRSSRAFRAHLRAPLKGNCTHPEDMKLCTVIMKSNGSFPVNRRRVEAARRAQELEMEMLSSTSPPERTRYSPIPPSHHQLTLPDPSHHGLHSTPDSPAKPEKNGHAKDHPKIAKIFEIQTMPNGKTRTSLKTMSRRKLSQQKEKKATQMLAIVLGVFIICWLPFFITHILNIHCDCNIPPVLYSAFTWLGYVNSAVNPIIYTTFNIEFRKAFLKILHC
Sequence of SNAP-D2SR L94^2.64A (P14416 1-414 isoform P14416-2 L94A): as the sequence (P14416 1-414 isoform P14416-2 V91A) above, with A91V, L94A counted along it
Sequence of SNAP-D2SR N52^1.50A (P14416 1-414 isoform P14416-2 N52A): as the sequence (P14416 1-414 isoform P14416-2 V91A) above, with N52A, A91V counted along it
Sequence of SNAP-D2SR I73^2.43A (P14416 1-414 isoform P14416-2 I73A): as the sequence (P14416 1-414 isoform P14416-2 V91A) above, with I73A, A91V counted along it
Sequence of SNAP-D2SR L54^1.52A (P14416 1-414 isoform P14416-2 L54A): as the sequence (P14416 1-414 isoform P14416-2 V91A) above, with L54A, A91V counted along it

COc1cc(CO)c(F)cc1C(=O)n1ccc2c(F)cccc21 [D2 PAM2, [5-fluoro-4-(hydroxymethyl)-2-methoxyphenyl]-(4-fluoro-1H-indol-1-yl)methanone]
D2 PAM2 log τ (SNAP-D2SR D80^2.50A): –0.78 ± 0.25 | D2 PAM2 pKB (SNAP-D2SR D80^2.50A): 4.82 ± 0.18 | D2 PAM2 τ (SNAP-D2SR D80^2.50A): 0.17 | D2 PAM2 log αβ (SNAP-D2SR D80^2.50A; with DA): 0.96 ± 0.25 | D2 PAM2 αβ (SNAP-D2SR D80^2.50A; with DA): 9.0 | pKB (D2LR): 5.18 ± 0.12 | LogτB (D2LR; intrinsic efficacy): -1.30 ± 0.16 | Logαβ (D2LR; with dopamine): 1.52 ± 0.12 | fold shift + 10 μM PAM (SNAP-D2SR I128^3.46A; shift of DA IC50): 1.1 fold | ΔpIC50 + 10 μM PAM (SNAP-D2SR I128^3.46A; shift of DA pIC50): 0.06 ± 0.13 | D2 PAM2 log τ (SNAP-D2SR C118^3.36A): –0.24 ± 0.05 | D2 PAM2 pKB (SNAP-D2SR C118^3.36A): 4.82 ± 0.15 | D2 PAM2 τ (SNAP-D2SR C118^3.36A): 0.57 | Kb (SNAP-D2SR C118^3.36A; [1]): 15 µM | D2 PAM2 log αβ (SNAP-D2SR C118^3.36A; with DA): 1.30 ± 0.13 | D2 PAM2 αβ (SNAP-D2SR C118^3.36A; with DA): 20 | Kb (SNAP-D2SR L94^2.64A): 12.6 µM | Logτ (SNAP-D2SR L94^2.64A): -0.43 ± 0.07 | pKB (SNAP-D2SR L94^2.64A): 4.90 ± 0.12 | τ (SNAP-D2SR L94^2.64A): 0.37 | Logαβ (SNAP-D2SR L94^2.64A; with DA): 1.54 ± 0.10 | αβ (SNAP-D2SR L94^2.64A; with DA): 34.7 | D2 PAM2 log τ (SNAP-D2SR N52^1.50A): 0.23 ± 0.07 | D2 PAM2 pKB (SNAP-D2SR N52^1.50A): 4.89 ± 0.21 | D2 PAM2 τ (SNAP-D2SR N52^1.50A): 1.69 | Kb (SNAP-D2SR N52^1.50A; [1]): 12.8 µM | D2 PAM2 log αβ (SNAP-D2SR N52^1.50A; with DA): 1.18 ± 0.28 | D2 PAM2 αβ (SNAP-D2SR N52^1.50A; with DA): 15 | fold shift + 10 μM PAM (SNAP-D2SR I73^2.43A; shift of DA IC50): 1.5 fold | ΔpIC50 + 10 μM PAM (SNAP-D2SR I73^2.43A; shift of DA pIC50): 0.17 ± 0.09 | Kb (SNAP-D2SR V91^2.61A): 2.6 µM | Logτ (SNAP-D2SR V91^2.61A): -0.23 ± 0.08 | pKB (SNAP-D2SR V91^2.61A): 5.59 ± 0.21 | τ (SNAP-D2SR V91^2.61A): 0.59 | Logαβ (SNAP-D2SR V91^2.61A; with DA): 0.93 ± 0.18 | αβ (SNAP-D2SR V91^2.61A; with DA): 8.5 | D2 PAM2 log τ (SNAP-D2SR S121^3.39A): –1.18 ± 0.15 | D2 PAM2 pKB (SNAP-D2SR S121^3.39A): 4.83 ± 0.11 | D2 PAM2 τ (SNAP-D2SR S121^3.39A): 0.06 | Kb (SNAP-D2SR S121^3.39A; [1]): 15 µM | D2 PAM2 log αβ (SNAP-D2SR S121^3.39A; with DA): 1.14 ± 0.06 | D2 PAM2 αβ (SNAP-D2SR S121^3.39A; with DA): 14 | fold shift + 10 μM PAM (SNAP-D2SR L54^1.52A; shift of DA IC50): 1.3 fold | ΔpIC50 + 10 μM PAM (SNAP-D2SR L54^1.52A; shift of DA pIC50): 0.10 ± 0.11 | D2 PAM2 log τ (SNAP-D2SR T398^7.54A): –1.40 ± 0.22 | D2 PAM2 pKB (SNAP-D2SR T398^7.54A): 5.35 ± 0.17 | D2 PAM2 τ (SNAP-D2SR T398^7.54A): 0.04 | fold decrease in cooperativity with DA (SNAP-D2SR T398^7.54A; cAMP): 6 fold | Kb (SNAP-D2SR T398^7.54A; [1]): 4 µM | D2 PAM2 log αβ (SNAP-D2SR T398^7.54A; with DA): 0.46 ± 0.05 | D2 PAM2 αβ (SNAP-D2SR T398^7.54A; with DA): 2.9
